In assay [1] the target is Muscarinic acetylcholine receptor M1 and M3 (Homo sapiens) (UniProt P20309+P11229). The assay can be described thus: Selectivity for cloned muscarinic M3 receptor over cloned muscarinic M1 receptor.
Assay [2] has as its target T1, Muscarinic acetylcholine receptor M1 (Homo sapiens, UniProt P11229).
T1 sequence (P11229 whole entry): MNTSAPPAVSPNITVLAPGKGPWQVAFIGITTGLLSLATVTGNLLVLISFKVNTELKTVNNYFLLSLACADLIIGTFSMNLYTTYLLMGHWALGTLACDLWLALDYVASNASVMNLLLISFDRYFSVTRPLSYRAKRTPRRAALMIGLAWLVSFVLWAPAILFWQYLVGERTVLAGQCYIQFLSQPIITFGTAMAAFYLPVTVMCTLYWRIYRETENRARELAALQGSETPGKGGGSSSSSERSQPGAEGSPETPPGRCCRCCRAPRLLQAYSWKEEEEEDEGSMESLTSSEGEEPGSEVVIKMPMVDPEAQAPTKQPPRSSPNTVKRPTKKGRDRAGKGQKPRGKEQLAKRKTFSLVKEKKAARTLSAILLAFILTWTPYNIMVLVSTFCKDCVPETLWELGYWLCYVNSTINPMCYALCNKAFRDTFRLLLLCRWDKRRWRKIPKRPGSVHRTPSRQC
The assay can be described thus: Antagonist activity at cloned muscarinic M1 receptor expressed in CHO cells by measuring calcium mobilization. The format is functional, cell-based. In general terms: Calcium assays in cells follow changes in intracellular calcium, usually with a dye or a luminescent sensor.

In assay [3] the target is T2, Muscarinic acetylcholine receptor M2 (Homo sapiens, UniProt P08172).
T2 sequence (P08172 whole entry): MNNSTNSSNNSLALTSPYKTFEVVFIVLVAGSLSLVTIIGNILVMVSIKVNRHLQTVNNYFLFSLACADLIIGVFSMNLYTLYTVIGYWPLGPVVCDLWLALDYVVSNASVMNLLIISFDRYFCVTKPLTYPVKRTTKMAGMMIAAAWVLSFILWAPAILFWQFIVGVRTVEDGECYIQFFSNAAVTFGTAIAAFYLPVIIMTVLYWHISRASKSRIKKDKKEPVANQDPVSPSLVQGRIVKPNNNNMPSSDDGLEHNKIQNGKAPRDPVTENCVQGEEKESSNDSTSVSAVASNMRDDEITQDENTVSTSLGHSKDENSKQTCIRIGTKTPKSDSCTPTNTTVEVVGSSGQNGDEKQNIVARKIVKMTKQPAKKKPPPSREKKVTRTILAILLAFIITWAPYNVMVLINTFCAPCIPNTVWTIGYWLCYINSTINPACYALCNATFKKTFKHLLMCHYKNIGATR
The assay can be described thus: Antagonist activity at cloned muscarinic M2 receptor expressed in CHO cells by measuring calcium mobilization. The format is functional, cell-based.

Assay [4] addresses Muscarinic acetylcholine receptors; M2 & M3 (Homo sapiens) (UniProt P20309+P08172). The assay can be described thus: Selectivity for cloned muscarinic M3 receptor over cloned muscarinic M2 receptor.
The target in assay [5] is Muscarinic acetylcholine receptor M3 (Homo sapiens, UniProt P20309). The assay can be described thus: Antagonist activity at cloned muscarinic M3 receptor expressed in CHO cells by measuring calcium mobilization. The format is functional, cell-based.
Chain of Muscarinic acetylcholine receptor M3 (P20309 whole entry): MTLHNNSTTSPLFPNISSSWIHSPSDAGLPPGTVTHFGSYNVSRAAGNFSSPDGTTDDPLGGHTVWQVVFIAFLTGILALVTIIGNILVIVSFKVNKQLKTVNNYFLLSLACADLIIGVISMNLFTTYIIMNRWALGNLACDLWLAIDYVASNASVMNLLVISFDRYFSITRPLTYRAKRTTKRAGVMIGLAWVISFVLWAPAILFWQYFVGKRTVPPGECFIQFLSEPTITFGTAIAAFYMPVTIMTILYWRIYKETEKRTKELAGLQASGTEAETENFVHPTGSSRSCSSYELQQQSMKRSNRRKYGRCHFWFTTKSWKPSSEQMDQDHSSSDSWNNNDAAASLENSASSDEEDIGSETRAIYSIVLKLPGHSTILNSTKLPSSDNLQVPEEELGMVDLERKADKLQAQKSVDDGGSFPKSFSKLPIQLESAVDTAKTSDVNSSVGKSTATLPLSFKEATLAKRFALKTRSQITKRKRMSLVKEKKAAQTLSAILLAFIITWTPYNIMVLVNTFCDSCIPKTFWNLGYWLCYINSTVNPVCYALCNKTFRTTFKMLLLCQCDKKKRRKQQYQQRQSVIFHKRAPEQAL

Chain of Muscarinic acetylcholine receptor M1 and M3 (Homo sapiens) (P20309 whole entry, looked up, one chain of several): as the sequence (P20309 whole entry) above

As a reminder, the IC50 is the concentration needed to halve the response being measured. Turning to `C[N+]1(C)[C@@H]2CC[C@H]1C[C@H](OC(=O)N(Cc1ccc(Br)cc1)c1ccccc1)C2`, the Ratio IC50 in assay [1] came out at 0.6; in assay [4], 7.1. In addition, the IC50 in assay [2] amounted to 33.4 nM; in assay [3] it was 400 nM; in assay [5], 56.6 nM.

Consider `C[N+]1(C)[C@@H]2CC[C@H]1C[C@H](OC(=O)N(Cc1ccoc1)c1ccccc1)C2`, for which the Ratio IC50 was 0.8 in assay [1] and 3.4 in assay [4]. The 50% inhibitory concentration (IC50) in assay [2] was 12.2 nM; in assay [3] it was 53.7 nM; in assay [5], 16 nM.

Consider `CN1[C@@H]2CC[C@H]1C[C@H](OC(=O)N(Cc1ccccc1)c1ccsc1)C2`, for which the Ratio IC50 in assay [1] amounted to 1.7; in assay [4], 3.6. The concentration for half-maximal inhibition (IC50) was found to be 19.1 nM in assay [2], 39.1 nM in assay [3] and 10.9 nM in assay [5].

Consider `CN1[C@@H]2CC[C@H]1C[C@H](OC(=O)N(Cc1ccsc1)c1ccsc1)C2`, for which the Ratio IC50 was 1.9 in assay [1] and 2.7 in assay [4]. The concentration for half-maximal inhibition (IC50) was determined as 13.8 nM in assay [2], 19.6 nM in assay [3] and 7.2 nM in assay [5].

Consider `C[N+]1(C)[C@@H]2CC[C@H]1C[C@H](OC(=O)N(Cc1cccc(Br)c1)c1ccccc1)C2`, for which the Ratio IC50 in assay [1] came to 0.6; in assay [4] it was 1.5. For the same compound, the half-inhibitory concentration (IC50) came to 210 nM in assay [2], 520 nM in assay [3] and 342 nM in assay [5].

Regarding `C[N+]1(C)[C@@H]2CC[C@H]1C[C@H](OC(=O)N(CC1CCCCC1)c1ccsc1)C2`, the Ratio IC50 worked out at 0.5 in assay [1] and 5 in assay [4]. In addition, the values for the IC50 in assay [2], in assay [3] and in assay [5] were 5.8 nM, 55.9 nM and 11.3 nM, respectively.

Regarding `CN1[C@@H]2CC[C@H]1C[C@@H](OC(=O)N(CC1CCCCC1)c1ccsc1)C2`, the Ratio IC50 in assay [1] is 1.1; in assay [4] it was 2.5. For the same compound, the concentration for half-maximal inhibition (IC50) was found to be 126 nM in assay [2], 271 nM in assay [3] and 109 nM in assay [5].

Take `C[N+]1(C)[C@@H]2CC[C@H]1C[C@@H](OC(=O)N(Cc1cccc(C#N)c1)c1ccsc1)C2`: the Ratio IC50 in assay [1] came to 0.4; in assay [4] it was 4.7. For the same compound, the IC50 in assay [2] was 55.6 nM; in assay [3], 638 nM; in assay [5], 137 nM.

With `C[N+]1(C)[C@@H]2CC[C@H]1C[C@H](OC(=O)N(Cc1ccccc1Br)c1ccccc1)C2`, the Ratio IC50 in assay [1] is 1; in assay [4] it was 1.6. In addition, the values for the half-maximal inhibitory concentration (IC50) in assay [2], in assay [3] and in assay [5] were 420 nM, 666 nM and 407 nM, respectively.

Consider `CN1[C@@H]2CC[C@H]1C[C@H](OC(=O)N(Cc1ccc(Br)cc1)c1ccccc1)C2`, for which the values for the Ratio IC50 in assay [1] and in assay [4] were 1.1 and 2, respectively. Besides, the concentration for half-maximal inhibition (IC50) was determined as 813 nM in assay [2], 1420 nM in assay [3] and 721 nM in assay [5].

Take `CN1[C@@H]2CC[C@H]1C[C@H](OC(=O)N(Cc1ccoc1)c1ccccc1)C2`: the Ratio IC50 came out at 1.5 in assay [1] and 1.4 in assay [4]. The IC50 turned out to be 84.5 nM in assay [2], 82.5 nM in assay [3] and 57.3 nM in assay [5].

For the compound `Cc1ccc(CN(C(=O)O[C@@H]2C[C@H]3CC[C@@H](C2)[N+]3(C)C)c2ccccc2)s1`, the Ratio IC50 is 0.8 in assay [1] and 2.9 in assay [4]. Moreover, the half-inhibitory concentration (IC50) in assay [2] is 15.8 nM; in assay [3] it was 60.8 nM; in assay [5], 21.2 nM.

Consider `Cc1ccsc1CN(C(=O)O[C@H]1C[C@H]2CC[C@@H](C1)[N+]2(C)C)c1ccccc1`, for which the Ratio IC50 in assay [1] was 0.6; in assay [4] it was 5.4. Moreover, the results for the concentration for half-maximal inhibition (IC50) in assay [2], in assay [3] and in assay [5] were 3.8 nM, 34.7 nM and 6.4 nM, respectively.

For `COc1cccc(CN(C(=O)O[C@@H]2C[C@H]3CC[C@@H](C2)[N+]3(C)C)c2ccccc2)c1`, the Ratio IC50 was found to be 0.6 in assay [1] and 1 in assay [4]. Besides, the results for the IC50 in assay [2], in assay [3] and in assay [5] were 612 nM, 1000 nM and 972 nM, respectively.

`CN1[C@@H]2CC[C@H]1C[C@@H](OC(=O)N(Cc1ccc(C#N)cc1)c1ccsc1)C2`: the values for the Ratio IC50 in assay [1] and in assay [4] were 0.6 and 2.6, respectively. In addition, the figures for the IC50 in assay [2], in assay [3] and in assay [5] were 75.8 nM, 363 nM and 137 nM, respectively.

For the compound `CN1[C@@H]2CC[C@H]1C[C@@H](OC(=O)N(Cc1ccccc1Br)c1ccccc1)C2`, the Ratio IC50 in assay [1] and in assay [4] was 1.2 throughout. Further, the results for the 50% inhibitory concentration (IC50) in assay [2], in assay [3] and in assay [5] were 1390 nM, 1400 nM and 1140 nM, respectively.

As to `CN1[C@@H]2CC[C@H]1C[C@H](OC(=O)N(Cc1cccs1)c1ccccc1)C2`, the values for the Ratio IC50 in assay [1] and in assay [4] were 2.4 and 1.9, respectively. Besides, the IC50 in assay [2] was 48.3 nM; in assay [3] it was 38.2 nM; in assay [5] it was 20.3 nM.

Consider `CN1[C@@H]2CC[C@H]1C[C@@H](OC(=O)N(Cc1ccc(C#N)cc1)c1ccccc1)C2`, for which the Ratio IC50 in assay [1] was determined as 0.7; in assay [4] it was 1.1. For the same compound, the half-maximal inhibitory concentration (IC50) in assay [2] amounted to 847 nM; in assay [3], 1350 nM; in assay [5], 1160 nM.

With `Cc1ccsc1CN(C(=O)O[C@H]1C[C@H]2CC[C@@H](C1)N2C)c1ccccc1`, the Ratio IC50 in assay [1] turned out to be 1.1; in assay [4] it was 1.8. Moreover, the concentration for half-maximal inhibition (IC50) came to 117 nM in assay [2], 191 nM in assay [3] and 108 nM in assay [5].

As for `CN1[C@@H]2CC[C@H]1C[C@@H](OC(=O)N(Cc1ccsc1)c1ccccc1)C2`, the Ratio IC50 was 2.7 in assay [1] and 3.3 in assay [4]. The results for the 50% inhibitory concentration (IC50) in assay [2], in assay [3] and in assay [5] were 73.8 nM, 90.7 nM and 27.5 nM, respectively.

As for `C[N+]1(C)[C@@H]2CC[C@H]1C[C@@H](OC(=O)N(Cc1ccc(C#N)cc1)c1ccccc1)C2`, the Ratio IC50 in assay [1] is 0.4; in assay [4], 2.1. The IC50 stood at 258 nM in assay [2], 1490 nM in assay [3] and 714 nM in assay [5].

In the case of `Cc1ccc(CN(C(=O)O[C@@H]2C[C@H]3CC[C@@H](C2)N3C)c2ccccc2)s1`, the Ratio IC50 in assay [1] was found to be 2; in assay [4], 0.4. Also, the results for the half-maximal inhibitory concentration (IC50) in assay [2], in assay [3] and in assay [5] were 518 nM, 410 nM and 262 nM, respectively.

With `CN1[C@@H]2CC[C@H]1C[C@@H](OC(=O)N(Cc1cccc(Br)c1)c1ccccc1)C2`, the Ratio IC50 in assay [1] and in assay [4] was 0.9 in each case. Besides, the IC50 in assay [2] amounted to 1960 nM; in assay [3] it was 2160 nM; in assay [5] it was 2310 nM.

Regarding `COc1cccc(CN(C(=O)O[C@@H]2C[C@H]3CC[C@@H](C2)N3C)c2ccccc2)c1`, the results for the Ratio IC50 in assay [1] and in assay [4] were 0.6 and 0.5, respectively. The IC50 in assay [2] is 1210 nM; in assay [3] it was 1170 nM; in assay [5], 2140 nM.

As for `CN1[C@@H]2CC[C@H]1C[C@H](OC(=O)N(Cc1ccccc1)c1ccccc1)C2`, the Ratio IC50 in assay [1] is 2.2; in assay [4], 3.4. Further, the IC50 in assay [2] turned out to be 161 nM; in assay [3], 254 nM; in assay [5], 74.5 nM.

Take `Cc1ccoc1CN(C(=O)O[C@H]1C[C@H]2CC[C@@H](C1)[N+]2(C)C)c1ccccc1`: the Ratio IC50 was found to be 0.4 in assay [1] and 5.4 in assay [4]. Besides, the IC50 in assay [2] turned out to be 15.2 nM; in assay [3], 229 nM; in assay [5], 42.3 nM.

Consider `COc1ccc(CN(C(=O)O[C@H]2C[C@H]3CC[C@@H](C2)N3C)c2ccccc2)cc1`, for which the figures for the Ratio IC50 in assay [1] and in assay [4] were 0.9 and 1.8, respectively. Moreover, the IC50 in assay [2] was 734 nM; in assay [3], 1360 nM; in assay [5], 776 nM.

Take `CN1[C@@H]2CC[C@H]1C[C@H](OC(=O)N(Cc1ccccc1)c1cccs1)C2`: the results for the Ratio IC50 in assay [1] and in assay [4] were 2 and 1.2, respectively. Besides, the half-inhibitory concentration (IC50) in assay [2] was 45.1 nM; in assay [3], 26.5 nM; in assay [5], 22.9 nM.

For the origin of these results see ChEMBL document CHEMBL1137565, “Discovery of novel 8-azoniabicyclo[3.2.1]octane carbamates as muscarinic acetylcholine receptor antagonists” (Bioorg Med Chem Lett, 2007).
